Reference: publication PMC11249012 (Journal of Medicinal Chemistry, 2024)

Target: T1, HDAC10 (Homo sapiens, UniProt Q969S8)
T1 sequence (Q969S8 1-669): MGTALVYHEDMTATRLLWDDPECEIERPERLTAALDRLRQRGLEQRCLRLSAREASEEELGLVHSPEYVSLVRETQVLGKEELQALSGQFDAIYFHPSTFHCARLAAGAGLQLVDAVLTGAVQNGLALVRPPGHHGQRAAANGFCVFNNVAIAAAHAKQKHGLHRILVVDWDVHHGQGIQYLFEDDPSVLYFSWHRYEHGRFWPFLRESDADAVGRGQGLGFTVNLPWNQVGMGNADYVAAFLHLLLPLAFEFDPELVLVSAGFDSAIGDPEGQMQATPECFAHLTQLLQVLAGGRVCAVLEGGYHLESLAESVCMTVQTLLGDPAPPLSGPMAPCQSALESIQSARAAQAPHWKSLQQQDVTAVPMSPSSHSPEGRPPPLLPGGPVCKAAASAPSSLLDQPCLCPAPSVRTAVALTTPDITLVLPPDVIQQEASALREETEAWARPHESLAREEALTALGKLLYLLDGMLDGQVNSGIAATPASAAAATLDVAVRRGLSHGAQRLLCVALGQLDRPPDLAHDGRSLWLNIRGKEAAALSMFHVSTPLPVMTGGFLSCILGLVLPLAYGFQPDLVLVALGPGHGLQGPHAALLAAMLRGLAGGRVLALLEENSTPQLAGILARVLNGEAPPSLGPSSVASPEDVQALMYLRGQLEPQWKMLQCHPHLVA
Test: Biochemical assay for HDAC inhibition, HDAC10
Settings: read-out: IC50 HDAC10; Table 1, purified enzyme; unit inferred

An IC50 of 6.75 nM was found for Cn1cc(CNCC2CCN(c3ncc(C(=O)NO)cn3)CC2)c2ccccc21 [quisinostat] in this work.
